Data as given in ChEMBL document CHEMBL1148912, “New diterpenoids from the marine mangrove Bruguiera gymnorrhiza” (J Nat Prod, 2004).
≈ marks a conversion by molar mass, not a printed value.

Assays:
[1] = Growth inhibition of mouse L929 cells; format: cell-based
K562 = experiment: Growth inhibition of human K562 cells; format: functional
HeLa = experiment: Cytotoxicity against human HeLa cells; format: functional

| GI50 (K562) [µg/mL] | Structure (SMILES) | GI50 [1] [µg/mL] | CC50 (HeLa) [µg/mL] |
| --- | --- | --- | --- |
| 6.8 (≈ 23.6 µM) | C=C1C[C@@]23CC[C@@H]4[C@](C)(CO)CCC[C@@]4(C)[C@@H]2CC[C@H]1C3 | 18.2 (≈ 63.1 µM) | 32.8 (≈ 114 µM) |
| 32.8 (≈ 102 µM) | C[C@@]12CCC[C@@](C)(C(=O)O)[C@H]1CC[C@@]13C[C@H](CO)[C@@H](CC[C@H]12)C3 | 42.4 (≈ 132 µM) | 43 (≈ 134 µM) |
| 26.7 (≈ 76.6 µM) | COC(=O)[C@]1(C)CCC[C@@]2(C)C3=CC[C@H]4C[C@]3(CC[C@H]12)C[C@]4(O)CO | 41.9 (≈ 120 µM) | 38.7 (≈ 111 µM) |
| 10.5 (≈ 34.7 µM) | C=C1C[C@]23CC[C@H]4[C@@](C)(CCC[C@@]4(C)C=O)[C@@H]2CC[C@@]1(O)C3 | 11.5 (≈ 38 µM) | 42.3 (≈ 140 µM) |
| 50 (≈ 164 µM) | C=C1C[C@]23CC[C@@H]4[C@](C)(CO)CCC[C@@]4(C)[C@@H]2CC[C@@]1(O)C3 | 50 (≈ 164 µM) | 50 (≈ 164 µM) |
| 27.7 (≈ 79 µM) | COC(=O)[C@]1(C)CCC[C@@]2(C)[C@@H]3CC[C@H]4C[C@]3(CC[C@@H]21)C[C@]4(O)CO | 39.5 (≈ 113 µM) | 40.5 (≈ 116 µM) |
| 50 (≈ 157 µM) | C[C@@]12CCC[C@@](C)(C=O)[C@H]1CC[C@@]13CC(=O)[C@](CO)(CC[C@H]12)C3 | 45.4 (≈ 143 µM) | 37.7 (≈ 118 µM) |
| 0.01 (≈ 0.0117 µM) | CC(=O)O[C@H]1C(=O)[C@@]2(C)[C@H]([C@H](OC(=O)c3ccccc3)[C@]3(O)C[C@H](OC(=O)[C@H](O)[C@@H](NC(=O)c4ccccc4)c4ccccc4)C(C)=C1C3(C)C)[C@]1(OC(C)=O)CO[C@@H]1C[C@@H]2O [PACLITAXEL] | 0.1 (≈ 0.117 µM) | 0.01 (≈ 0.0117 µM) |
| 13.6 (≈ 44.4 µM) | C[C@@]1(CO)CCC[C@]2(C)[C@@H]1CC[C@@]13C[C@H](CO)[C@@H](CC[C@H]12)C3 | 12.8 (≈ 41.8 µM) | 35.7 (≈ 116 µM) |
| 50 (≈ 156 µM) | C[C@@]12CCC[C@@](C)(C=O)[C@H]1CC[C@@]13C[C@@H](CC[C@H]12)[C@@](O)(CO)C3 | 50 (≈ 156 µM) | 50 (≈ 156 µM) |
| 29.2 (≈ 82.3 µM) | C[C@@]12CCC[C@@](C)(C=O)[C@H]1CC[C@]13C[C@](O)(CC[C@H]12)[C@](O)(CCl)C3 | 50 (≈ 141 µM) | 38.2 (≈ 108 µM) |
